Drawing on US10150728B2, “Alkylene derivatives” (Shionogi & Co., Ltd., priority 2013, dated 2018), this text covers IC50 for 25 molecules.

What is called IC50 is the point on the concentration scale where inhibition reaches its midpoint.

For the assay, the target named is recombinant human ACC2 (Homo sapiens (Human), UniProt O00763). Kind of assay: Measurement of inhibitory activity on human ACC2 (MALDI-TOF MS, acetyl CoA to malonyl CoA conversion). Format: biochemical. Particulars: Tables 155-159. The method in brief: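 His-tagged human ACC2 (residues 27–2458) from baculovirus-infected Sf-9 cells was preincubated 1 h in pH 7.4 HEPES-KOH buffer with MgCl2, 6-10 mM potassium citrate, glutathione and BSA. Substrate solution held 1 mM ATP, 0.8 mM acetyl CoA and 25-50 mM bicarbonate. After 1–3 h at room temperature, malonyl CoA/(malonyl+acetyl CoA) was read by negative-mode MALDI-TOF MS; citrate, bicarbonate and time varied by enzyme lot.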
Chain of recombinant human ACC2 (O00763 27-2458): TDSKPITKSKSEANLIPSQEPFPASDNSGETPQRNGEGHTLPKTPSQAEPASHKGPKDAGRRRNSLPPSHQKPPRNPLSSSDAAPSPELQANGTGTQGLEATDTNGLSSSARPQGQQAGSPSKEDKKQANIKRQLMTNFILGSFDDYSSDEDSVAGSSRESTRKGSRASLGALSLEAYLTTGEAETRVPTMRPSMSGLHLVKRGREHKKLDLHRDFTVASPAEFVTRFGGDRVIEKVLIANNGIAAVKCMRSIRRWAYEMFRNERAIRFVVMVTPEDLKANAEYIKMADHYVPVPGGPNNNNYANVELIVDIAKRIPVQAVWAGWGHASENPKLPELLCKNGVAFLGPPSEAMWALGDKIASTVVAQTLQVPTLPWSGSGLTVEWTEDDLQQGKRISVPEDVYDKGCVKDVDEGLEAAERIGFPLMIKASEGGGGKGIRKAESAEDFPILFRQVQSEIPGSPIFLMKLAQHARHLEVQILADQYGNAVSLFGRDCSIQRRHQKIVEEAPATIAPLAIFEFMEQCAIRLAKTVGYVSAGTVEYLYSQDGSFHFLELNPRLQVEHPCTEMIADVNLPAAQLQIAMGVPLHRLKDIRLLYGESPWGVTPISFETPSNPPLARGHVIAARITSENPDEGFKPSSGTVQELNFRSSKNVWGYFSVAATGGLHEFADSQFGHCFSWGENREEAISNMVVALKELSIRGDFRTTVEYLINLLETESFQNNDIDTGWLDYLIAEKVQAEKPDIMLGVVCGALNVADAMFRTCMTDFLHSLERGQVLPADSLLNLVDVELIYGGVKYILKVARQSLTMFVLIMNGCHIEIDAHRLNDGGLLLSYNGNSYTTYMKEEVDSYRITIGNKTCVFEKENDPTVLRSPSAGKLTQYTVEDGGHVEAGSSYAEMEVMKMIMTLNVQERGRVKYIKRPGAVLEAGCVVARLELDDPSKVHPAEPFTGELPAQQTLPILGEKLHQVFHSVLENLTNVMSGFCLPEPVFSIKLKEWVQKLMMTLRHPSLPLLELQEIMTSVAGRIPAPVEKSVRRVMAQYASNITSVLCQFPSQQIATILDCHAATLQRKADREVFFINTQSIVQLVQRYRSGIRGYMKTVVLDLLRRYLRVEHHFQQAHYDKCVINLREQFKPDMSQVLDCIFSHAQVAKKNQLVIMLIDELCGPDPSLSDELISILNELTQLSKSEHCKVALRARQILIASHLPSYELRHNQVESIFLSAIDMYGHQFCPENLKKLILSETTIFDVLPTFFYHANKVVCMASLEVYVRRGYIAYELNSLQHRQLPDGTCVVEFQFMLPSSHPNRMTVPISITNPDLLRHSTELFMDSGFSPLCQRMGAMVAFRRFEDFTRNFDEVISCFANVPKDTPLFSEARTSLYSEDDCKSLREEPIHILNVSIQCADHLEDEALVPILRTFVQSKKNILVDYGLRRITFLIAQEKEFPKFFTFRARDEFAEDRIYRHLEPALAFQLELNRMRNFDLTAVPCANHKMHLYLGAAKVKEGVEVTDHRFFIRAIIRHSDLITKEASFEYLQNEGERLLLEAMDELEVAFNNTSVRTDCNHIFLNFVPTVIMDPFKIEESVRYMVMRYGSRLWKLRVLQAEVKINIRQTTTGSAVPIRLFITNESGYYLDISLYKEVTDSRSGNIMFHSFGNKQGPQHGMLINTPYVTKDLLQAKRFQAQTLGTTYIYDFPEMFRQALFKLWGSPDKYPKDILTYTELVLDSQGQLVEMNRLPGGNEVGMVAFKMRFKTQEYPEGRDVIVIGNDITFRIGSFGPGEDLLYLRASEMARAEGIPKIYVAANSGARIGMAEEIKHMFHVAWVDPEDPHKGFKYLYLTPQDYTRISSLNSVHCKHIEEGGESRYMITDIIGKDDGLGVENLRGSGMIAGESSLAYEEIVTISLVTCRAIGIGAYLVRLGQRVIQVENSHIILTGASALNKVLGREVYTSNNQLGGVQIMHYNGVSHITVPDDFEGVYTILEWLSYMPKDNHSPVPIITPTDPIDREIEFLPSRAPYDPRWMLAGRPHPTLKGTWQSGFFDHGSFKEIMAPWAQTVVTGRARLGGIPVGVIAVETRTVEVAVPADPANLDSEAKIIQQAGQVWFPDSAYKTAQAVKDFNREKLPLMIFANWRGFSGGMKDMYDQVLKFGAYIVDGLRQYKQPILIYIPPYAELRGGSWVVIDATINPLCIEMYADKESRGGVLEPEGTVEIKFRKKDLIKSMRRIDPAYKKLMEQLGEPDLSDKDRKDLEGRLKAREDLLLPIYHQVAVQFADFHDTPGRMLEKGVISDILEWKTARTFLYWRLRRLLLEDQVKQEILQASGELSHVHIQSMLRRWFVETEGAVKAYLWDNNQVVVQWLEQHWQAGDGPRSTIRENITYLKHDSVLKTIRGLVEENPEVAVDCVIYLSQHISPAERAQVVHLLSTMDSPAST

As to `CCOc1nc2c(C)cc(O[C@H]3CC[C@H](OC[C@H](C)NC(C)=O)CC3)nc2s1` [Compound I-279], the IC50 is 8 nM.

As for `CO[C@H]1C[C@H](Oc2nc3ccc(OC[C@H]4C[C@H](OC[C@H](C)NC(C)=O)C4)nc3s2)C1` [Compound I-280], the IC50 is 79 nM.

As to `CO[C@H]1C[C@@H](Oc2nc3ccc(OC[C@H]4C[C@H](OC[C@H](C)NC(C)=O)C4)nc3s2)C1` [Compound I-281], the IC50 came to 41 nM.

As to `CC(=O)N[C@@H](C)CO[C@H]1C[C@H](COc2ccc3nc(N(C)CC#N)sc3n2)C1` [Compound I-282], the concentration for half-maximal inhibition (IC50) stood at 892 nM.

For `CC(=O)N[C@@H](C)CO[C@H]1C[C@H](COc2ccc3nc(O[C@@H]4CO[C@@H]5CCO[C@@H]54)sc3n2)C1` [Compound I-283], the IC50 turned out to be 984 nM.

With `CC(=O)N[C@@H](C)CO[C@H]1C[C@H](COc2ccc3nc(N4CC5(CCC5)C4)sc3n2)C1` [Compound I-284], the IC50 was found to be 17 nM.

In the case of `C[C@@H](CO[C@H]1CC[C@H](Oc2ncc3nc(OC4CC4)sc3c2F)CC1)NC(N)=O` [Compound I-285], the IC50 is 38 nM.

Regarding `CC(=O)N[C@@H](C)CO[C@H]1C[C@H](COc2ccc3nc(N4CC(F)(F)C4)sc3c2F)C1` [Compound I-286], the IC50 is 125 nM.

Regarding `CC(=O)N[C@@H](C)CO[C@H]1C[C@H](COc2ccc3nc(N4CC[C@@H](F)C4)sc3n2)C1` [Compound I-287], the IC50 is 51 nM.

For the molecule `CC(=O)N[C@@H](C)CO[C@H]1C[C@H](COc2ccc3nc(N4CCC(C#N)C4)sc3n2)C1` (stereo partly shown) [Compound I-288], the IC50 is 759 nM.

As for `CC(=O)N[C@@H](C)CO[C@H]1C[C@H](COc2ccc3nc(N4CC[C@H](F)C4)sc3n2)C1` [Compound I-289], the IC50 was 110 nM.

Consider `C[C@@H](CO[C@H]1CC[C@H](Oc2cc3sc(OCC4CC4(F)F)nc3cn2)CC1)NC(=O)CO` (stereo partly shown) [Compound I-290], for which the IC50 worked out at 82 nM.

Take `C[C@@H](CO[C@H]1CC[C@H](Oc2cc3sc(OCC4CC4(F)F)nc3cn2)CC1)NC(N)=O` (stereo partly shown) [Compound I-291]: the IC50 came out at 32 nM.

With `CC(=O)N[C@@H](C)CO[C@H]1C[C@](C)(COc2ccc3nc(OC4CC4)sc3n2)C1` [Compound I-292], the IC50 was 52 nM.

Consider `CC(=O)N[C@@H](C)CO[C@H]1C[C@H](COc2ccc3nc(O[C@H]4C[C@H](O)C4)sc3n2)C1` [Compound I-293], for which the IC50 worked out at 171 nM.

As for `CC(=O)N[C@@H](C)CO[C@H]1C[C@H](COc2ccc3nc(O[C@H]4C[C@@H](O)C4)sc3n2)C1` [Compound I-294], the IC50 is 300 nM.

Take `CC(=O)N[C@@H](C)CO[C@H]1C[C@H](COc2ccc3nc(O[C@H]4C[C@H](F)C4)sc3n2)C1` [Compound I-295]: the IC50 turned out to be 12 nM.

With `CC(=O)N[C@@H](C)CO[C@H]1C[C@H](COc2ccc3nc(O[C@H]4C[C@@H](F)C4)sc3n2)C1` [Compound I-296], the concentration for half-maximal inhibition (IC50) amounted to 6 nM.

Take `CC(=O)N[C@@H](C)CO[C@H]1C[C@](F)(COc2ccc3nc(OCC(F)F)sc3n2)C1` [Compound I-297]: the IC50 was 42 nM.

Consider `CC(=O)N[C@@H](C)CO[C@H]1C[C@](F)(COc2ccc3nc(OC4CC4)sc3n2)C1` [Compound I-298], for which the IC50 stood at 52 nM.

Turning to `CC(=O)N[C@@H](C)CO[C@H]1C[C@](F)(COc2ccc3nc(OC(C)C)sc3n2)C1` [Compound I-299], the IC50 stood at 26 nM.

As to `CC(=O)N[C@@H](C)CO[C@H]1C[C@H](COc2ccc3nc(OCC(C)(C)O)sc3n2)C1` [Compound I-300], the IC50 turned out to be 165 nM.

`CC(=O)N[C@@H](C)CO[C@H]1C[C@H](COc2ccc3nc(OC4CC(C#N)C4)sc3n2)C1` (stereo partly shown) [Compound I-301]: the IC50 stood at 37 nM.

For the molecule `CC(=O)N[C@@H](C)CO[C@H]1C[C@H](COc2ccc3nc(OCC(C)(C)C#N)sc3n2)C1` [Compound I-302], the IC50 came out at 52 nM.

Take `CC(=O)N[C@@H](C)CO[C@H]1C[C@H](COc2ccc3nc(Oc4ccc(F)nc4)sc3n2)C1` [Compound I-303]: the IC50 came out at 68 nM.
